These results are taken from ChEMBL document CHEMBL4043183, “Elucidation of a carboxylate O-methyltransferase NcmP in nocamycin biosynthetic pathway” (2017).

Molecules are shown by their SMILES. Converted amounts (≈) assume the structure as drawn. Where only a bound is given, the exact number is not on record here.

Holding throughout (format): functional
One experiment concerns Bacillus subtilis. The experiment is described as follows: Antibacterial activity against Bacillus subtilis CCTCC AB2013121 by broth microdilution method. Background: Dilution methods test growth across graded concentrations, often in twofold steps.
In another experiment the test system is Bacillus thuringiensis. As to the kind of experiment: Antibacterial activity against Bacillus thuringiensis CCTCC AB2013119 by broth microdilution method.
A further experiment concerns Staphylococcus aureus. As to the kind of experiment: Antibacterial activity against Staphylococcus aureus ATCC 29213 by broth microdilution method.
The next experiment relates to Enterococcus faecalis. As to the kind of experiment: Antibacterial activity against Enterococcus faecalis ATCC 29212 by broth microdilution method.
The subject of a further experiment is Micrococcus luteus. As to the kind of experiment: Antibacterial activity against Micrococcus luteus CCTCC AB2013120 by broth microdilution method.

As for `CC(/C=C/C(O)=C1/C(=O)CNC1=O)=C\[C@@H](C)[C@H]1O[C@@]23O[C@H](C(=O)C[C@]2(C)O[C@H](C)[C@@H]3C(=O)O)[C@@H]1C`, the minimal inhibitory concentration (MIC) in the experiment with Bacillus subtilis was > 128 µg/mL; against Bacillus thuringiensis it was 32 µg/mL (≈ 65.4 µM); against Staphylococcus aureus, > 128 µg/mL; against Enterococcus faecalis, > 128 µg/mL; against Micrococcus luteus it was > 128 µg/mL.
`COC(=O)[C@H]1[C@@H](C)O[C@@]2(C)CC(=O)[C@H]3O[C@@]12O[C@H]([C@H](C)/C=C(C)/C=C/C(O)=C1/C(=O)CNC1=O)[C@H]3C`: the minimum inhibitory concentration (MIC) in the experiment with Bacillus subtilis is > 128 µg/mL; against Bacillus thuringiensis it was 0.5 µg/mL (≈ 0.993 µM); in the experiment with Staphylococcus aureus, 32 µg/mL (≈ 63.5 µM); against Enterococcus faecalis, 4 µg/mL (≈ 7.94 µM); against Micrococcus luteus, 16 µg/mL (≈ 31.8 µM).

The term MIC denotes the smallest concentration in the dilution series that meets the test's criterion for growth inhibition.
